In the kinase profiling compilation of Christmann-Franck et al. (2016):
“And” between values parts separate entries of the source, which are not always exact repeats. Equal entries are not always repeated.

Assays:
Experiment in all cases: radiometric filter-binding kinase assay, Kinase HotSpot
Settings in all cases: compound 0.5 µM; ATP 10 µM
NEK7 (human) = NEK7 (human) (UniProt Q8TDX7)
NEK4 (human) = NEK4 (human) (UniProt P51957)
IKBKE (human) = IKBKE (human) (UniProt Q14164)
MAPKAPK3 (human) = MAPKAPK3 (human) (UniProt Q16644)
BRSK2 (human) = BRSK2 (human) (UniProt Q8IWQ3)
TSSK1B (human) = TSSK1B (human) (UniProt Q9BXA7)
MAP4K4 (human) = MAP4K4 (human) (UniProt O95819)
MAPK1 (human) = MAPK1 (human) (UniProt P28482)
RPS6KA3 KD1 KD2 (human) = RPS6KA3 KD1 KD2 (human) (UniProt P51812)
PAK1 (human) = PAK1 (human) (UniProt Q13153)
CHEK1 (human) = CHEK1 (human) (UniProt O14757)
TBK1 (human) = TBK1 (human) (UniProt Q9UHD2)
ZAP70 (human) = ZAP70 (human) (UniProt P43403)
WEE1 (human) = WEE1 (human) (UniProt P30291)
PBK (human) = PBK (human) (UniProt Q96KB5)
TGFBR2 (human) = TGFBR2 (human) (UniProt P37173)
NEK1 (human) = NEK1 (human) (UniProt Q96PY6)
Chain of NEK1 (human) (Q96PY6 whole entry, looked up): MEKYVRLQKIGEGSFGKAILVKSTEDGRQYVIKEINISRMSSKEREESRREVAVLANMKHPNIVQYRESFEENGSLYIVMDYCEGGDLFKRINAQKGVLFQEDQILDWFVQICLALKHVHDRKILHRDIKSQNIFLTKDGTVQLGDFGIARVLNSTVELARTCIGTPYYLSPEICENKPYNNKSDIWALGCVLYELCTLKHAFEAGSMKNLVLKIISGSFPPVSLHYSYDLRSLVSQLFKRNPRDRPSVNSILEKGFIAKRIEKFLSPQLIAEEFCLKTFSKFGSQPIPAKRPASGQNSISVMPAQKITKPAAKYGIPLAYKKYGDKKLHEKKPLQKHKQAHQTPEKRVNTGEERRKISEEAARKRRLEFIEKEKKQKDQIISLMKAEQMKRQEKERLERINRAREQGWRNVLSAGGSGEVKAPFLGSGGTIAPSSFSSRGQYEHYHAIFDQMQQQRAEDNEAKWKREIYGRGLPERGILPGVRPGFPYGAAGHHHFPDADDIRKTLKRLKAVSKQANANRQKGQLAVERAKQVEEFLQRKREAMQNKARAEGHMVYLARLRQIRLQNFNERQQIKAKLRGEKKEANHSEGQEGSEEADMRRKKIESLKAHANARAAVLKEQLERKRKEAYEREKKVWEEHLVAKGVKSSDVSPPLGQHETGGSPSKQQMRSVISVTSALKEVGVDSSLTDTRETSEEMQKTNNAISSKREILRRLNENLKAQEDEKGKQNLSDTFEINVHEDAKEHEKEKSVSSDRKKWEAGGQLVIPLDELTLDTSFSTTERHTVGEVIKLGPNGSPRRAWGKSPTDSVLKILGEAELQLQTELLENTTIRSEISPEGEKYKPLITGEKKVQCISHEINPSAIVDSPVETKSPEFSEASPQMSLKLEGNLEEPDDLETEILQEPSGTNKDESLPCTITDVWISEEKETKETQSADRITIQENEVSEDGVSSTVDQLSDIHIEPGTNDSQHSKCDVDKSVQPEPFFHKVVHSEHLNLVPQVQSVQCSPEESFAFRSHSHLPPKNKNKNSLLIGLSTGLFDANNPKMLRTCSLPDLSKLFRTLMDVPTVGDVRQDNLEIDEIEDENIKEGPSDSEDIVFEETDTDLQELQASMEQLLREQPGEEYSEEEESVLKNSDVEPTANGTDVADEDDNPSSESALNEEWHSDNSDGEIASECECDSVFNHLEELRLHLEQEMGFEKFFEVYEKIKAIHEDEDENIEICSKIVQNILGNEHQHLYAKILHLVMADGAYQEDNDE

NEK3 (human) = NEK3 (human) (UniProt P51956)
Chain of NEK3 (human) (P51956 whole entry, looked up): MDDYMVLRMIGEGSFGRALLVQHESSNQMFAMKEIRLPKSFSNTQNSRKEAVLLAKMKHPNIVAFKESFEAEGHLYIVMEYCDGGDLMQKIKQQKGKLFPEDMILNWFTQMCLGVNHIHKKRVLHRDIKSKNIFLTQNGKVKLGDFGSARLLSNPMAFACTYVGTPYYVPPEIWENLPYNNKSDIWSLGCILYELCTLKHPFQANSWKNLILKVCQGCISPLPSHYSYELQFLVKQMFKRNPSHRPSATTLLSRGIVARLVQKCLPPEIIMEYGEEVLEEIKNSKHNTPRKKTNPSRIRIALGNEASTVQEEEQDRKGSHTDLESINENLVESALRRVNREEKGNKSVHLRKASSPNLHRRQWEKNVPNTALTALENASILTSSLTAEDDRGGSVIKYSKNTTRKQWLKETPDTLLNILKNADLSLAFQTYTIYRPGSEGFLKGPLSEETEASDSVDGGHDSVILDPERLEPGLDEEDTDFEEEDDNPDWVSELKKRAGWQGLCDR

MAP3K7 TAB1 (human) = MAP3K7 TAB1 (human) (UniProt O43318+Q15750)
PRKCB2 (human) = PRKCB2 (human) (UniProt P05771)
SRC (human) = SRC (human) (UniProt P12931)
IRAK1 (human) = IRAK1 (human) (UniProt P51617)
Chain of IRAK1 (human) (P51617 whole entry, looked up): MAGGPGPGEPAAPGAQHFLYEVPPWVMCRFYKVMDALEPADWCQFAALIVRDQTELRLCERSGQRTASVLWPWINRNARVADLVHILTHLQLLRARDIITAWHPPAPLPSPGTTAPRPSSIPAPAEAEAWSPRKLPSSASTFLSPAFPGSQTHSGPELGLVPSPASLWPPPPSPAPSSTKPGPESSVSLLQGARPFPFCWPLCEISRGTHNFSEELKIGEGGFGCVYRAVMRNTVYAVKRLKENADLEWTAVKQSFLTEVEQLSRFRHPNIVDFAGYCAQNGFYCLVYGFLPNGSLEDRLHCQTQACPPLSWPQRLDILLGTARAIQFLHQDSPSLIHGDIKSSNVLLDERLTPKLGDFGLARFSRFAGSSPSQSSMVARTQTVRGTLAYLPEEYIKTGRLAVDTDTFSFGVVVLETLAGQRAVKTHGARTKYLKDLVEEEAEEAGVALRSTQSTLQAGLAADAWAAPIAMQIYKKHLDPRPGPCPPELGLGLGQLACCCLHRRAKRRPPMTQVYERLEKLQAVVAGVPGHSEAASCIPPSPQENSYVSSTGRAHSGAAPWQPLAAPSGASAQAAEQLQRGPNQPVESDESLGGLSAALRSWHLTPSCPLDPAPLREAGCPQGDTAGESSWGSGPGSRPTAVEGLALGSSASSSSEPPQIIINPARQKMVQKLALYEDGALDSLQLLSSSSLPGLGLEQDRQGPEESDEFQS

CAMK2D (human) = CAMK2D (human) (UniProt Q13557)
PRKD3 (human) = PRKD3 (human) (UniProt O94806)
CLK4 (human) = CLK4 (human) (UniProt Q9HAZ1)
Chain of CLK4 (human) (Q9HAZ1 whole entry, looked up): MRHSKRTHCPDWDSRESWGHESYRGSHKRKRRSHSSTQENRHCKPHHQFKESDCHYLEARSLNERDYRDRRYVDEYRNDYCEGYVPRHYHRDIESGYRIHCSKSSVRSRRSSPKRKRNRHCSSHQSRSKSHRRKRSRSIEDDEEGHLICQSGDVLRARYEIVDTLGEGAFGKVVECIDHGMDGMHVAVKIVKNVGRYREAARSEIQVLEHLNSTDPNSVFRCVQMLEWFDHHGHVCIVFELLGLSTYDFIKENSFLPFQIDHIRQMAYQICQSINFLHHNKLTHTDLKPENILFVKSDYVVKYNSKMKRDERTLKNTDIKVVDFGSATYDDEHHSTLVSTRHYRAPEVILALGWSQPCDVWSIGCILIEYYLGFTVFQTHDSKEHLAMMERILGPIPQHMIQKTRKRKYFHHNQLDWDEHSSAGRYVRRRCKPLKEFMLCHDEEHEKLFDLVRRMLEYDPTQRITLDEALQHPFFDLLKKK

ADRBK1 (human) = ADRBK1 (human) (UniProt P25098)
MARK4 (human) = MARK4 (human) (UniProt Q96L34)
IRAK4 (human) = IRAK4 (human) (UniProt Q9NWZ3)
WNK2 (human) = WNK2 (human) (UniProt Q9Y3S1)
FYN (human) = FYN (human) (UniProt P06241)
GSK3B (human) = GSK3B (human) (UniProt P49841)
PIM3 (human) = PIM3 (human) (UniProt Q86V86)
TXK (human) = TXK (human) (UniProt P42681)
DAPK1 (human) = DAPK1 (human) (UniProt P53355)
Chain of DAPK1 (human) (P53355 whole entry, looked up): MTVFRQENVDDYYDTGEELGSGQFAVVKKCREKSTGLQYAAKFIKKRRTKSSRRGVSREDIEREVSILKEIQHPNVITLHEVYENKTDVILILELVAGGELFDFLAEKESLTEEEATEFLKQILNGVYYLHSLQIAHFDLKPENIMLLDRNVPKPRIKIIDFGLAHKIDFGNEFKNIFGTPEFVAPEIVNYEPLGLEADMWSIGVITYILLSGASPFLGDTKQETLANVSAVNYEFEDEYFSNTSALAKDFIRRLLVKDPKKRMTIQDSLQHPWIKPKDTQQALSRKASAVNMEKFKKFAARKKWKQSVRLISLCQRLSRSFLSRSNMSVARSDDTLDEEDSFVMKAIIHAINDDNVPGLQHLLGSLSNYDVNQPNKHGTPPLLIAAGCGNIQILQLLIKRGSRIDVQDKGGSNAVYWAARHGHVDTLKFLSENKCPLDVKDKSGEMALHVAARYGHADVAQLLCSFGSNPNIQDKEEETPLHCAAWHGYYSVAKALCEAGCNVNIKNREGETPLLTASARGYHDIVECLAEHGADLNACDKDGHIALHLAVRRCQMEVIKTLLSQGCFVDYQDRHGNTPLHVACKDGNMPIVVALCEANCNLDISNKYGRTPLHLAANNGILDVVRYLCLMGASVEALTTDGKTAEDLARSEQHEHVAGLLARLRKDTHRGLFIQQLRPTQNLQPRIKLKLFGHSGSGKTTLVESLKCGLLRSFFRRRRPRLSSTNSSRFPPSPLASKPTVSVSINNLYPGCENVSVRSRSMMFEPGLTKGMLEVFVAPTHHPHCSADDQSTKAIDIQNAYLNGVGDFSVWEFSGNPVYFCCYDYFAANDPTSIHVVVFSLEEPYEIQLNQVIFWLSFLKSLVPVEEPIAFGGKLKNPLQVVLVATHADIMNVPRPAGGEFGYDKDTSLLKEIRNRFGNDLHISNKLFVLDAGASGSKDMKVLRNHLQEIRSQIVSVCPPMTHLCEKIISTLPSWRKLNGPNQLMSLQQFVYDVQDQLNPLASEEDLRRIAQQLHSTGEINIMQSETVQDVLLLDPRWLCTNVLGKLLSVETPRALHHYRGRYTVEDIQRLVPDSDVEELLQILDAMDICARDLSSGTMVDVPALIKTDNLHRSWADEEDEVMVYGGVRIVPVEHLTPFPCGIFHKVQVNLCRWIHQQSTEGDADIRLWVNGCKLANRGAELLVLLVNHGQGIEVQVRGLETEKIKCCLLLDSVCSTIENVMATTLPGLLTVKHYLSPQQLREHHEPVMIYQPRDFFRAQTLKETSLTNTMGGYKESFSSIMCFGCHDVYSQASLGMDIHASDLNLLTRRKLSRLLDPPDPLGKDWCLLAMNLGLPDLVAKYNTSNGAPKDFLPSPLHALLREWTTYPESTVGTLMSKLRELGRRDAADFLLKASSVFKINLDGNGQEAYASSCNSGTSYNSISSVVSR

SGK2 (human) = SGK2 (human) (UniProt Q9HBY8)
Chain of SGK2 (human) (Q9HBY8 whole entry, looked up): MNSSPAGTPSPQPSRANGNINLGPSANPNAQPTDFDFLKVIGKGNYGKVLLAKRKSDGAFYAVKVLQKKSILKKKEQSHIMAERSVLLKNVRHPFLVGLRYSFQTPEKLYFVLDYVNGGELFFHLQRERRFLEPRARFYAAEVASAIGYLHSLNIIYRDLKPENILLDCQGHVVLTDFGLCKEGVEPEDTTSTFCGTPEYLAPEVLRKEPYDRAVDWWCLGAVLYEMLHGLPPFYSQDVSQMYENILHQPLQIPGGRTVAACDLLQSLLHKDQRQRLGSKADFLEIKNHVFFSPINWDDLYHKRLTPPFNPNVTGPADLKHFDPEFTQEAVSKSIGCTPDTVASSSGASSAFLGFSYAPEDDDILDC

VRK1 (human) = VRK1 (human) (UniProt Q99986)
MARK3 (human) = MARK3 (human) (UniProt P27448)
PDGFRA (human) = PDGFRA (human) (UniProt P16234)
ALK (human) = ALK (human) (UniProt Q9UM73)
NEK2 (human) = NEK2 (human) (UniProt P51955)
CDK4 CCND1 (human) = CDK4 CCND1 (human) (UniProt P24385+P11802)
LYN (human) = LYN (human) (UniProt P07948)

Chain of NEK7 (human) (Q8TDX7 whole entry, looked up): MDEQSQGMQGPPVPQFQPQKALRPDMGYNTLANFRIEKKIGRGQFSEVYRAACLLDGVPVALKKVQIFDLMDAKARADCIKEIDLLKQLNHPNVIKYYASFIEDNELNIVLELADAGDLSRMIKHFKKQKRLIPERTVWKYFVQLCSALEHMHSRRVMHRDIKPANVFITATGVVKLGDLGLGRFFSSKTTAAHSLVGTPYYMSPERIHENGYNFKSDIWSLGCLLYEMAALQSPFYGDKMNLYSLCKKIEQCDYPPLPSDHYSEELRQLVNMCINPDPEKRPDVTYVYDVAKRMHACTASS

Compound | residual activity (NEK7 (human)) [%] | residual activity (NEK4 (human)) [%] | residual activity (IKBKE (human)) [%] | residual activity (MAPKAPK3 (human)) [%] | residual activity (BRSK2 (human)) [%] | residual activity (TSSK1B (human)) [%] | residual activity (MAP4K4 (human)) [%] | residual activity (MAPK1 (human)) [%] | residual activity (PAK1 (human)) [%] | residual activity (TBK1 (human)) [%] | residual activity (ZAP70 (human)) [%] | residual activity (WEE1 (human)) [%] | residual activity (PBK (human)) [%] | residual activity (TGFBR2 (human)) [%] | residual activity (NEK1 (human)) [%] | residual activity (NEK3 (human)) [%] | residual activity (MAP3K7 TAB1 (human)) [%] | residual activity (PRKCB2 (human)) [%] | residual activity (SRC (human)) [%] | residual activity (IRAK1 (human)) [%] | other results
O=C1Cc2c([nH]c3ccc([N+](=O)[O-])cc23)-c2ccccc2N1 | 89.7 | 109 | 93.4 | 97 | 34.5 | 74.7 | 4.47 | 106 | 36.7 | 82.4 | 91.4 | 98.2 | 85.1 | 19.4 | 105 | 108 | 67.5 | 105 | 39.7 | 93.1 | residual activity (RPS6KA3 KD1 KD2 (human)): 70.6%; residual activity (CHEK1 (human)): 37.5%; residual activity (CAMK2D (human)): 79.3%; residual activity (PRKD3 (human)): 88.2%; residual activity (CLK4 (human)): 86.4%; residual activity (ADRBK1 (human)): 91.8%; residual activity (MARK4 (human)): 55.4%; residual activity (IRAK4 (human)): 167%; residual activity (WNK2 (human)): 116%; residual activity (FYN (human)): 53.1%; residual activity (GSK3B (human)): 2.68%; residual activity (PIM3 (human)): 62.3%; residual activity (TXK (human)): 87.3%; residual activity (DAPK1 (human)): 104%; residual activity (SGK2 (human)): 111%; residual activity (VRK1 (human)): 90.8%; residual activity (MARK3 (human)): 67.7%; residual activity (PDGFRA (human)): 91.7%; residual activity (ALK (human)): 94.2%; residual activity (NEK2 (human)): 92.4%
Nc1nc(Nc2ccc(S(N)(=O)=O)cc2)nn1C(=S)Nc1c(F)cccc1F | 82.6 | 60.5 | 67.2 | 89.6 | 9.03 | 13.7 | 4.46 | 76.2 | 29 | 10.3 | 86.9 | 100 | 105 | 89.3 | 6.11 | 19.6 | 12.5 | 74.5 | 41.6 | 16.9 | residual activity (RPS6KA3 KD1 KD2 (human)): -0.692%; residual activity (CAMK2D (human)): 15.6%; residual activity (PRKD3 (human)): 7.37%; residual activity (CLK4 (human)): 1.92%; residual activity (ADRBK1 (human)): 97.8%; residual activity (CDK4 CCND1 (human)): 87.7%; residual activity (MARK4 (human)): 2.33%; residual activity (IRAK4 (human)): 19.6%; residual activity (WNK2 (human)): 97.9%; residual activity (FYN (human)): 24.8%; residual activity (GSK3B (human)): 9.03%; residual activity (PIM3 (human)): 89.1%; residual activity (TXK (human)): 85.8%; residual activity (DAPK1 (human)): 81.3%; residual activity (SGK2 (human)): 42%; residual activity (VRK1 (human)): 94.6%; residual activity (MARK3 (human)): 0.29%; residual activity (PDGFRA (human)): 56.4%; residual activity (ALK (human)): 16.7%; residual activity (NEK2 (human)): 98.3%
CC(C)(C)c1nc2c3ccc(F)cc3c3c(=O)[nH]ccc3c2[nH]1 | 76.5 | 65.6 | 25.4 | 94.4 | 21.4 | 37.3 | 38.4 | 96.1 | 82.1 | 24 | 88.9 | 87.4 | 39.1 | 58.2 | 49 | 74.4 | 46.6 | 90.6 | 93.4 | 76.3 | residual activity (CHEK1 (human)): 22.9%; residual activity (LYN (human)): 101% and 95.9%; residual activity (CAMK2D (human)): 59.4%; residual activity (PRKD3 (human)): 10.8%; residual activity (CLK4 (human)): 70.7%; residual activity (ADRBK1 (human)): 98.5%; residual activity (CDK4 CCND1 (human)): 85.6%; residual activity (MARK4 (human)): 44.5%; residual activity (IRAK4 (human)): 96.3%; residual activity (WNK2 (human)): 105%; residual activity (FYN (human)): 52.3%; residual activity (GSK3B (human)): 95.1%; residual activity (PIM3 (human)): 33.9%; residual activity (TXK (human)): 77.1%; residual activity (DAPK1 (human)): 3.03%; residual activity (SGK2 (human)): 84.4%; residual activity (VRK1 (human)): 82.2%; residual activity (MARK3 (human)): 55.9%; residual activity (PDGFRA (human)): 92.1%; residual activity (ALK (human)): 20%
